From article PMC6332004, “Transport of Twelve Coumarins from Angelicae Pubescentis Radix across a MDCK-pHaMDR Cell Monolayer—An in Vitro Model for Blood-Brain Barrier Permeability” (Molecules, 2015)
Read-outs that look alike come from different tables or passages of the source.

Experiments:
in vitro = settings: dog, MDCK-MDR1, pH 7.4
Description: (§1) 10 mM stock solutions of test compounds were prepared in DMSO and diluted with HBSS to the desired concentrations before transport experiments. HBSS (pH 7.4) was used as a transport medium. After washing the MDCK-pHaMDR cell monolayer twice with prewarmed HBSS medium, HBSS medium was preserved to prepare samples of the calibration curves. Then the experiments were carried out by replacing the transport medium in the AP side (0.5 mL, for absorption transport) or BL side (1.5 mL, for efflux transport) with test compounds (50 µM). The plates were shaked at 55 rpm for 90 min at 37 °C in a water bath. Samples were collected from both sides of the cell monolayer, then immediately frozen, lyophilized and preserved below −20 °C. To measure the intracellular accumulation amounts of different coumarins, the cell monolayers were extracted after transport assays with 200 µL 70% MeOH (v/v) for 20 min, then centrifuged and preserved below −20 °C.
(§2) An Agilent 1100 series HPLC system (Agilent Technologies, Palo Alto, CA, USA) was used with an analytical Diamonsil® C18 column (250 mm × 4.6 mm, 5 µm, Dikma, Beijing, China) equipped with a C18 guard column (8 mm × 4 mm, 5 µm, Dikma). […] The flow rate was 1.0 mL/min. Elution peaks were monitored and the peak areas were used to calculate the compound concentrations.
(§3) Papp in AP-BL or BL-AP direction of each coumarin was calculated from the following equation: (2) Papp=dQ/dt·A·C0 [cm/s] where Q is the accumulation quantity of the compound in the receiver side (μmol), dQ/dt is the linear appearance rate of the compound in the receiver side (μmol/s), C0 is the initial concentration in the donor side (μM), and A is the surface area of the membrane insert (cm^2). Data were expressed as the mean ± SD.

[1] = Cell accumulation and total recovery of coumarins in the bidirectional transport experiment; settings: dog
Description: as §1
(§4) To determine the corresponding coumarins, the lyophilized permeation samples were dissolved in a suitable volume of MeOH, thoroughly vortex-mixed for 1 min and then centrifuged at 16,000× g for 20 min. An aliquot of 20 µL supernatant solution was used for HPLC assay. To measure the intracellular accumulation amount of different coumarins, the aliquots of cell extractions were determined too.
(§5) CA (Cell accumulation): the percent of the coumarins that accumulated in the cell monolayer after transport
(§6) experiment relative to the initial amount. TR (Total recovery): the percent of the total amount of the coumarins
(§7) recovered from both sides of the inserts and intracellular accumulation in MDCK-pHaMDR cell monolayer
(§8) relative to the initial amount. N.D.: not detected. The concentration of all coumarins was 50 µM.
(§9) incubation time was up to 90 min. Data are means ± S.D. (n = 6).

[2] = tested on: MDCK-pHaMDR cell monolayer; settings: dog, 90 min, 50 µM, pH 7.4
Description: as §1, §4, §5, §6, §7, §8, §9

[3] = tested on: MDCK-pHaMDR cell monolayer; test: Cell accumulation and total recovery of coumarins in the bidirectional transport experiment; settings: 50 µM, 90 min, percent of initial amount, n = 6
Description: as §1, §4, §5, §6, §7, §8, §9

P-gp [4] = test: Rh123 intracellular accumulation in MDCK-pHaMDR cells with or without verapamil; format: cell-based; settings: Rh123 10 µM
Description: The fluorescence at 485 nm (excitation wavelength) and 538 nm (emission wavelength) was determined on a Cary Eclipse Fluorescence spectrophotometer (Varian Inc., Palo Alto, CA, USA). To investigate intracellular accumulations of Rh123 as a probe substrate for P-gp, MDCK-pHaMDR cells were seeded on the 6 Wells plates at a density of about 1.0 × 10^5 cells/mL and grew for 48 h. Before the uptake experiments, cells were washed with PBS two times and pre-incubated with serum-free DMEM or 100 µM verapamil for 20 min. Rh123 with the final concentration of 10 µM was added, and cells were incubated with or without the presence of verapamil for 60 min at 37 °C. Then cells were washed with ice-cold PBS three times, and lysed with 0.1% (v/v) Triton X-100 for 15 min at 37 °C [33]. The fluorescence of Rh123 in cell lysates was determined as described above.

P-gp [5] = test: in vitro; settings: dog, not told
Description: The P-gp expression level in the MDCK-pHaMDR cell monolayer was examined by Rh123 transport and intracellular accumulation experiments. Rh123 (10 µM) bidirectional transports with or without the presence of verapamil (100 µM) were undertaken as described above, and the lyophilized permeation samples were dissolved in a proper volume of MeOH. The fluorescence at 485 nm (excitation wavelength) and 538 nm (emission wavelength) was determined on a Cary Eclipse Fluorescence spectrophotometer (Varian Inc., Palo Alto, CA, USA).

[6] = tested on: MDCK-pHaMDR cell monolayer; test: Bidirectional transport across MDCK-pHaMDR cell monolayer (in vitro BBB model); settings: AP to BL; coumarins 50 µM, caffeine 10 µM, atenolol 200 µM; 90 min; mean ± S.D., n = 6
Description: as §1, §2, §3

[7] = MDCK-pHaMDR cell monolayer, pH 7.4, TR (Total recovery) AP→BL, AP→BL, 50 µM, 90 min, percent of initial amount, n = 6
[8] = MDCK-pHaMDR cell monolayer, pH 7.4, TR (Total recovery) BL→AP, BL→AP, 50 µM, 90 min, percent of initial amount, n = 6

Compound	Papp A→B at 90 min (in vitro)	Papp B→A at 90 min, 50 µM (in vitro)	recovery at 90 min, 50 µM [1, 7]	recovery at 90 min, 50 µM [1, 8]	efflux ratio at 90 min, 50 µM (in vitro)	CA (Cell accumulation) AP→BL [3]	CA (Cell accumulation) BL→AP [3]	also measured
O=c1ccc2ccc(O)cc2o1 [Compound 1, umbelliferone]	35.9 ± 2.28 ×10⁻⁶ cm/s	32.8 ± 1.25 ×10⁻⁶ cm/s	99.3 ± 1.59%	96.7 ± 3.22%				
COc1ccc2ccc(=O)oc2c1CC=C(C)C [Compound 2, osthol]	23.8 ± 1.44 ×10⁻⁶ cm/s	20.4 ± 3.04 ×10⁻⁶ cm/s	105 ± 5.15%	95.6 ± 1.75%				CA (Cell accumulation) AP→BL [2]: 6.96 ± 1.50%; CA (Cell accumulation) BL→AP [2]: 3.51 ± 0.68%
COc1cc2ccc(=O)oc2cc1O [Compound 3, scopoletin]	37.1 ± 1.97 ×10⁻⁶ cm/s	27.4 ± 3.51 ×10⁻⁶ cm/s	87.5 ± 3.3%	92.2 ± 3.16%	0.96			
COc1c2occc2cc2ccc(=O)oc12 [Compound 8, xanthotoxin]								recovery at 90 min, 50 µM ([1]; pH 7.4, TR (Total recovery) AP→BL, AP→BL, 50 µM, 90 min, percent of initial amount, n = 6): 95.2 ± 4.79%; recovery at 90 min, 50 µM ([1]; pH 7.4, TR (Total recovery) BL→AP, BL→AP, 50 µM, 90 min, percent of initial amount, n = 6): 88.7 ± 3.13%
COC(=O)c1ccccc1-c1c2ccc(=N)cc-2oc2cc(N)ccc12 [Rh123, Rhodamine 123]								intracellular accumulation with verapamil relative to verapamil-absent group (P-gp [4]; 100 µM verapamil): 4.45 fold; Intracellular Accumulation Fluorescence Intensity (P-gp [4]; 60 min, without verapamil, n = 4): 34.51 ± 1.18; Papp A→B at 90 min, 10 µM (P-gp [5]; pH 7.4): 1.18 ± 0.056 ×10⁻⁶ cm/s; Papp B→A at 90 min, 10 µM (P-gp [5]; pH 7.4): 5.27 ± 0.209 ×10⁻⁶ cm/s; efflux ratio at 90 min, 10 µM (P-gp [5]; pH 7.4): 4.47 ± 0.24; efflux ratio at 90 min, 10 µM (P-gp [5]; pH 7.4, with verapamil 100 µM): 1.58
Cn1c(=O)c2c(ncn2C)n(C)c1=O [caffeine, reference compound]	43.6 ×10⁻⁶ cm/s							Papp AP-BL [6]: 43.58 ± 4.86 ×10^−6 cm/s

More lines, main results first:

Papp A→B at 90 min (in vitro)	Papp B→A at 90 min, 50 µM (in vitro)	recovery at 90 min, 50 µM [1, 7]	recovery at 90 min, 50 µM [1, 8]	efflux ratio at 90 min, 50 µM (in vitro)	CA (Cell accumulation) AP→BL [3]	CA (Cell accumulation) BL→AP [3]	Compound	also measured
27.3 ± 2.35 ×10⁻⁶ cm/s	26.8 ± 2.75 ×10⁻⁶ cm/s	89.9 ± 6.49%	94.7 ± 3.85%	0.98	4.63 ± 0.13%	1.79 ± 0.03%	O=c1ccc2cc3ccoc3cc2o1 [Compound 7, psoralen]	
43.6 ± 2.13 ×10⁻⁶ cm/s	37.4 ± 5.81 ×10⁻⁶ cm/s	99.15 ± 0.54%	107 ± 1.19%	0.86			COc1c2ccoc2cc2oc(=O)ccc12 [Compound 9, bergapten]	
7.29 ± 0.17 ×10⁻⁶ cm/s	3.73 ± 0.33 ×10⁻⁶ cm/s	90.2 ± 3.08%	86.6 ± 2.89%		5.38 ± 1.14%	1.65 ± 0.36%	CC(C)=CCOc1c2ccoc2cc2oc(=O)ccc12 [Compound 10, isoimperatorin]	
10.4 ± 0.95 ×10⁻⁶ cm/s	7.12 ± 0.12 ×10⁻⁶ cm/s	67.6 ± 5%	64.1 ± 3.63%		21.49 ± 4.56%	9.44 ± 1.01%	C/C=C(/C)C(=O)OC(C)(C)[C@@H]1Cc2c(ccc3ccc(=O)oc23)O1 [Compound 11, columbianadin]	recovery at 90 min, 50 µM ([1]; MDCK-pHaMDR cell monolayer, pH 7.4, recovery (both sides of the insert and intracellular), both directions): 64 to 68%
